Like-named read-outs stand apart in the source and are kept apart here.
How the values were obtained:
[1] = target: T1, HCV NS5B RdRp (NS5BCdelta21) (Hepatitis C virus genotype 1b, UniProt P26663); assay: HCV NS5B RNA-dependent RNA polymerase (RdRp) assay, poly rA/U12 primer-dependent elongation; assay type: biochemical; details: read-out: Anti-HCV Activity (%Inhibition, 100 µM)
T1 construct: 500 ng of NS5BCdelta21; made in house; host or cells: Escherichia coli DH5alpha

[2] = target: T1, HCV NS5B RdRp (NS5BCdelta21); assay: as above; assay type: biochemical; details: for inhibition at 100 µM: read-out: Anti-NS5B Activity (% Inhibition, 100 µM); for inhibition at 200 µM: read-out: Anti-NS5B Activity (% Inhibition, 200 µM)
Description: The RdRp activity of NS5B was evaluated by the standard primer-dependent elongation reactions employing poly rA/U12 template-primers (TP). Reaction mixtures containing 20 mM Tris-HCl (pH 7.0), 100 mM NaCl, 100 mM Na-glutamate, 0.5 mM DTT, 0.01% BSA, 0.01% Tween-20, 5% glycerol, 20 U/ml of RNasin, 0.5 microM of poly rA/U12, 25 microM UTP, 2-5 microCi [alpha-32P]UTP, 500 ng of NS5BCdelta21 and 0.5 mM MnCl2 with or without inhibitors in a total volume of 25 microliters were incubated for 1 h at 30°C. Reactions were quenched by the addition of ice cold 5% (v/v) trichloroacetic acid (TCA) containing 0.5 mM pyrophosphate (PPi), the denatured polymeric RNA products were transferred to GF-B filters and the amount of radioactive UMP incorporated into RNA products was quantified on a liquid scintillation counter (Packard). The concentrations of the compounds inhibiting 50% of NS5B RdRp activity (IC50) were calculated from the inhibition curves as a function of inhibitor concentration. Nsp12 activity was similarly evaluated except that incubations were carried out at 25°C for optimal enzymatic activity.
The ability of the compounds to inhibit HCV NS5B RdRp activity was investigated in vitro by polyrA-U12 extension assay as described in experimental section by Kaushik-Basu N, et al.. The compounds SGK 224-230, 313 and SGK 238- 244, 315 were reconstituted in DMSO as 50 mM stocks, and serially diluted in DMSO to obtain working stocks.
Preliminary screening was carried out at 100 µM to identify a wider range of compounds. […] NS5B RdRp activity in the absence of the inhibitor was taken as 100 percent after subtraction of residual background activity. The concentration of DMSO in all reactions was kept constant at 5%. […] Curves were fitted to data points using nonlinear regression analysis and IC50 values were interpolated from the resulting curves using GraphPad Prism 3.03 software.

[3] = dose-response curves, 8-10 concentrations, duplicate, two independent experiments, read-out: IC50

T1 sequence (P26663 2420-2989): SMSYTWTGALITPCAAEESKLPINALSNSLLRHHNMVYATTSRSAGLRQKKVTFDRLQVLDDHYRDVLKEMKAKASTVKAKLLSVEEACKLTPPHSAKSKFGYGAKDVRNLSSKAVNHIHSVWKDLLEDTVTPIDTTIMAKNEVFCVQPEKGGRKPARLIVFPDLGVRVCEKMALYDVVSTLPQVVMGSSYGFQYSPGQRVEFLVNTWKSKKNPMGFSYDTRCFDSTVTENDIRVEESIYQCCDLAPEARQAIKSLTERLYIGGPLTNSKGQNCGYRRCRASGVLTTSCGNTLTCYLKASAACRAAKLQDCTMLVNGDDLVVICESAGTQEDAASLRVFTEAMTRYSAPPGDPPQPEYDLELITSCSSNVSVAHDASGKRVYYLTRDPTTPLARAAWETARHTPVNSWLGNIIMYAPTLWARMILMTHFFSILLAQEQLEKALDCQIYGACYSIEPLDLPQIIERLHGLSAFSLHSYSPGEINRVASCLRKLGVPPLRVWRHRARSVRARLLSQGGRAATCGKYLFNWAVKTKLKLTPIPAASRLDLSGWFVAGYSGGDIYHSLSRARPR

Row | SMILES | inhibition at 100 µM [1] [%] | inhibition at 100 µM [2] [%] | inhibition at 200 µM [2] [%] | IC50 [2] [µM] | IC50 [2, 3] [µM]
1 | CCc1cccc2c3c([nH]c12)C(CC)(CC(=O)O)OCC3 (racemic) [Etodolac, (R,S)-2-[1,8-diethyl-1,3,4-tetrahydrapyrano[3,4-b]indole-1-yl]acetic acid] | 7.4 |  |  |  | 
2 | CCc1cccc2c3c([nH]c12)C(CC)(CC(=O)OC)OCC3 (racemic) [SGK 196, methyl (1,8-diethyl-1,3,4,9-tetrahydropirano[3,4-b]indole-1-yl) acetate] |  | 6.4 ± 0.9 | 13.3 ± 1.2 |  | 
3 | CCc1cccc2c3c([nH]c12)C(CC)(CC(=O)NN)OCC3 (stereo not drawn) [SGK 197, 2-(1,8-diethyl-1,3,4,9-tetrahydropyrano[3,4-b]indole-1-yl)acetohydrazide] |  | 11.4 ± 0.2 | 19 ± 4.4 |  | 
4 | CCc1cccc2c3c([nH]c12)C(CC)(CC(=O)NN=Cc1cccc(F)c1)OCC3 (stereo not drawn) [SGK 202, 2-(1,8-Diethyl-1,3,4,9-tetrahydropyrano[3,4-b]indole-1-yl) acetic acid [(3-fluorophenyl)methylene] hydrazide] |  | 61.6 ± 0.4 | 66.4 ± 5.8 | 35.9 ± 1.4 | 
5 | CCc1cccc2c3c([nH]c12)C(CC)(CC(=O)NNC(=S)NC)OCC3 (stereo not drawn) [SGK 224, 1-[2-(1,8-diethyl-1,3,4,9-tetrahydropyrano[3,4-b]indol-1-yl)acetyl]-4-methyl thiosemicarbazide] |  | 76.2 ± 0.5 | 77.5 ± 1.3 |  | 18.7
6 | C=CCNC(=S)NNC(=O)CC1(CC)OCCc2c1[nH]c1c(CC)cccc21 (stereo not drawn) [SGK 229, 1-[2-(1,8-Diethyl-1,3,4,9-tetrahydropyrano[3,4-b]indole-1-yl)acetyl]-4-allyl thiosemicarbazide] |  | 78.6 ± 2.1 | 81.6 ± 0.8 |  | 16.8 ± 1.2
7 | CCc1cccc2c3c([nH]c12)C(CC)(Cc1n[nH]c(=S)n1C)OCC3 (stereo not drawn) [SGK 238, 5-[(1,8-diethyl-1,3,4,9-tetrahydropyrano[3,4-b]indol-1-yl)methyl]-4-methyl-2,4-dihydro-3H-1,2,4-triazole-3-thione] |  | 78.9 ± 0.7 | 86 ± 0.6 | 14.8 | 
8 | COc1cc(O)c2c(c1)oc(=O)c1c3cc(O)c(O)cc3oc21 [Wedelolacton, reference compound] |  |  |  |  | 36

Source: EP2864333B1, “ETODOLAC DERIVATIVES AS HCV NS5B POLYMERASE INHIBITORS” (priority 2012, dated 2014)
